Measured values taken from patent US5004735A, “Pharmaceutical compositions for the inhibition of tumor metastasis” (Nisshin Flour Milling Co., Ltd., priority 1988, dated 1991).

Key:
B16-F10 melanoma [1] = experiment: Inhibition of tumor metastasis to lung by intravenous oily emulsions (Example 8); format: in vivo, male C57BL/6 mice; settings: oily emulsion i.v., 9 times every three days
Description: Male C57BL/6 mice (6 weeks old) were given 4×10^5 B16-F10 melanoma cells in 0.05 ml of serum-free RPMI 1640 medium in the foot pad of the left hind leg. […] The tumor-bearing legs were cut on day 27 and the mice were sacrificed on day 41. The number of metastatic nodules formed in the lung was counted for each mouse. 10 Animals were used per each group. % Inhibition of tumor metastasis to lung was calculated on the basis of the following formula.
% Inhibition of tumor metastasis to lung=(1-M/M0)×100

B16-F10 melanoma cells = experiment: L-PHA-sensitivity of cultured tumor cells (Example 4); format: cell-based; settings: Mus musculus, 10 μl of 50 μg/ml test compound in DMSO added on day 1 to 2 ml medium, L-PHA 50 μl of 50 μg/ml on day 2, count day 4, control 42.0, read-out: Growth inhibition by L-PHA
Description: Tumor cell culture: B16-F10 melanoma cells were incubated in RPMI 1640 medium containing 10% fetal bovine serum and antibiotics at 37° C.
Test method: B16-F10 cells (5×10^4) in 2 ml of the medium were seeded onto a plastic dish and incubation was started. On day 1, 10 μl of dimethylsulfoxide (control group) or a test compound suspended in 10 μl of dimethylsulfoxide at a concentration of 50 μg/ml (test group) was added. On day 2, 50 μl each of water was added to a half of each of the control group and the test group, and 50 μl of 50 μg/ml L-PHA solution in water was added to a remaining half. On day 4, the number of cells was counted in L-PHA-treated and untreated groups and % growth inhibition by L-PHA was calculated according to the following formula:
% Growth Inhibition=(1-N/N0)×100
in which N denotes a number of cells in the presence of L-PHA and N0 denotes a number of cells in the absence thereof.

B16-F10 melanoma [2] = experiment: Inhibition of lung metastasis of B16-F10 melanoma in mice, intraperitoneal suspension (Examples 1 and 2); format: in vivo, male C57BL/6 mice; settings: for Number of metastatic nodules mean ± standard error / Inhibition of metastasis: day 1 to 27, day 42; for Number of metastatic nodules mean ± standard error: lung surface; for Inhibition of metastasis: lung
Description: (§1) Experimental animal: male C57BL/6 mice (6 weeks old)
(§2) Tumor cell line: B16-F10 melanoma
Test method: Mice were given 4×10^5 B16-F10 melanoma cells in 0.05 ml of serum-free RPMI 1640 medium in the foot pad of the left hind leg. […] During this period, the size of the inoculated tumor was observed macroscopically. On day 28, tumor-bearing legs were cut from the mice and on day 42 the mice were sacrificed. The number of metastatic nodules formed on the lung surface was counted for each mouse. 10 Animals were used per each group
Compounds G and H were tested for the inhibitory effect on tumor metastasis.

B16-F10 melanoma [3] = experiment: Inhibition of lung metastasis of B16-F10 melanoma in mice, intraperitoneal olive oil solution (Example 3); format: in vivo, male C57BL/6 mice
Description: as §1, §2
Compounds B, D, E and F were tested for the inhibitory effect on tumor metastasis using the same experimental animal and tumor cell line as in Example 1. Test method: Mice were given 4×10^5 B16-F10 melanoma cells in 0.05 ml of serum-free RPMI 1640 medium in the foot pad of the left hind leg. A solution of Compounds B, D, E or F (0.1 or 0.2 mg) in 0.2 ml of olive oil was administered intraperitoneally every other day from day 1 to day 27 after inoculation of the melanoma cells. During this period, the size of the inoculated tumors was observed macroscopically. On day 28, the tumor-bearing legs were cut from the mice and on day 42 the mice were sacrificed. The number of metastatic nodules formed on the lung surface was counted for each mouse. 10 Animals were used per each group except for control group wherein 20 animals were used.

Structure (SMILES) | Inhibition of tumor metastasis to lung (B16-F10 melanoma [1]; 0.3 mg/kg) [%] | Inhibition of tumor metastasis to lung (B16-F10 melanoma [1]; 0.8 mg/kg) [%] | Inhibition of tumor metastasis to lung (B16-F10 melanoma [1]; 2.0 mg/kg) [%] | inhibition at 50 µg/mL (stock) (B16-F10 melanoma cells) [%] | Number of metastatic nodules mean ± standard error (B16-F10 melanoma [2]; 5 mg/kg i.p. every other day) | Inhibition of metastasis (B16-F10 melanoma [2]; 5 mg/kg i.p. every other day) [%] | Number of metastatic nodules mean ± standard error (B16-F10 melanoma [2]; 10 mg/kg i.p. every other day) | Inhibition of metastasis (B16-F10 melanoma [2]; 10 mg/kg i.p. every other day) [%] | Inhibitory effect on tumor metastasis (in words) (B16-F10 melanoma [2]; Example 2, i.p. suspension, same method as Example 1) | Growth of the inoculated tumors (in words) (B16-F10 melanoma [3]; 10 mg/Kg i.p., compared with Control) | Number of metastatic nodules mean ± standard error (B16-F10 melanoma [3]; 10 mg/kg i.p. in olive oil every other day, day 1 to 27, lung surface, day 42) | Inhibition of metastasis (B16-F10 melanoma [3]; 10 mg/kg i.p. in olive oil every other day, day 1 to 27, lung, day 42) [%]
CC(C)=CCC/C(C)=C/CC/C(C)=C/CC/C(C)=C/CC/C(C)=C/CC/C(C)=C/CC/C(C)=C/CC/C(C)=C/CC/C(C)=C/CCC(C)CCOP(=O)(O)O (centres unmarked) [Compound C] | 79 | 78 | 85 | 32.7 | 1.2 ± 0.8 | 94 | 0 | 100 | – | – | – | –
CC(C)=CCC/C(C)=C/CC/C(C)=C/CC/C(C)=C/CC/C(C)=C/CC/C(C)=C/CC/C(C)=C/CC/C(C)=C/CC/C(C)=C/CCC(C)CCOP(=O)(O)O (centres unmarked) [Compound G] | – | – | – | – | – | – | – | – | essentially the same as that of Compound C | – | – | –
CC(C)=CCC/C(C)=C/CC/C(C)=C/CC/C(C)=C/CC/C(C)=C/CC/C(C)=C/CC/C(C)=C/CC/C(C)=C/CC/C(C)=C/CCC(C)CCO (centres unmarked) [Compound B] | – | 54 | – | 36.6 | – | – | – | – | – | about the same as that of Control | 11.7 ± 6.2 | 63
